# Results from patent US20100119452A1, “SCREENING METHOD” (Takeda Pharmaceutical Company Limited, priority 2007, published 2010).
# Columns and labels:
# LNCaP-hr cells = assay: Antitumor test using nude mice transplanted with LNCaP-hr cells; format: in vivo; conditions: castrated nude mice, LNCaP-hr subcutaneous, 15 mg/kg orally twice daily for three weeks; for T/C (tumor volume): control 100%, start of administration 0%
# Protocol: LNCaP-hr cells were suspended in Matrigel, and 5×10^6 cells were transplanted subcutaneously into the flank of castrated nude mice. When tumor volume reached approximately 100 mm^3, the animals were grouped based on the tumor volume, and administered orally with 15 mg/kg body weight of the compound twice daily for three weeks. The tumor volume was calculated based on the assumption that the volume of the control group was 100% and the volume of the treated group at the start of the administration was 0% (T/C %).
# androgen receptors = assay: Reporter assay using LNCaP-hr cells (6k-PSA promoter, firefly luciferase); format: cell-based, human; conditions: LNCaP-hr cells with PSA promoter-luciferase, 24 hours after addition
# Protocol: As a negative control compound, conventional AR antagonist, bicalutamide was used. 6k-PSA promoter and firefly luciferase gene were used as a PSA promoter and a reporter gene, respectively.
# LNCaP-hr cells transfected with a reporter gene linked to a PSA promoter were plated on 96-well plates at a density of 50,000 cells/100 μL/well, to which the test compounds were added after the cells were cultured for 8 hours. The reporter activity was determined 24 hours after the addition of the test compounds. The suppressing activity of the test compounds on the reporter gene was calculated based on the assumption that the reporter activity in the cells without the addition of the test compounds (control group) was 100% and the reporter activity of the non-treated LNCaP-hr cells without introduction of the reporter gene was 0%.
SMILES,Antitumor activity (LNCaP-hr cells),T/C (tumor volume) (LNCaP-hr cells),Suppressing activity on the reporter gene (androgen receptors)
Cc1cc(-c2ccc(C#N)cc2)c(C#N)n1Cc1cc(C(F)(F)F)n[nH]1 [Compound 8],antitumor activity was observed,T/C = −5%,Concentration-dependent suppressing activity on the reporter gene was observed
Cc1cc(-c2ccc(C#N)cc2)c(C)n1Cc1cc(C(F)(F)F)n[nH]1 [Compound 6],antitumor activity was observed,T/C = −3%,Concentration-dependent suppressing activity on the reporter gene was observed
Cc1cc(-c2ccc(C#N)cc2)c(C)n1Cc1cn[nH]c1C(C)(C)O [Compound 9],antitumor activity was observed,T/C = 24%,Concentration-dependent suppressing activity on the reporter gene was observed
